The source of these data is article PMC3703823 (Clinical cancer research : an official journal of the …, 2011).

SMILES strings stand for the structures. Converted amounts (≈) assume the structure as drawn.

For series [1] the following is noted: across animal species; cited from earlier work.
A further series is described as follows: In vitro solubility. Format: physicochemical.
In a further series the test system is human hepatocytes. As to conditions: in vitro; cited from earlier work.
Another series can be described thus: clinical. As to conditions: human, plasma, po.
In series [2] the test system is alpha-1-acid glycoprotein (AAG). In words: SPR-based biosensor. The following applies: human. The class given is binding.
The target of the next series is AAG. The following applies: cited from earlier work.

Turning to `CS(=O)(=O)c1ccc(C(=O)Nc2ccc(Cl)c(-c3ccccn3)c2)c(Cl)c1` [GDC-0449, 2-chloro-N-[4-chloro-3-(pyridin-2-yl)phenyl]-4-[methylsulfonyl]benzamide], the Oral bioavailability entry in series [1] is given as “good”. Also, the solubility (usually the dissolved amount per volume that the medium holds) in “In vitro solubility” (pH 0.1) came to 990 µg/mL (≈ 2350 µM); in “In vitro solubility” (pH 6.5), 0.1 µg/mL (≈ 0.237 µM). Further, the “Compound remaining intact following coincubations with human hepatocytes” value with human hepatocytes is listed as about 100%. The half-life (as a rule, how long it takes for the measured level to halve) in “clinical” was over 7 days. Besides, the AUC(0-t) – broadly, the area under the concentration-time curve up to a stated or last time point – in the series “clinical” (150 mg) worked out at 322 ± 185 µM·h; in the series “clinical” (270 mg) it was 839 ± 458 µM·h; in “clinical” (540 mg) it was 1010 µM·h. In addition, the Cmax (in general, the maximum level reached in the sampled fluid or tissue) came out at 3.58 ± 1.34 µM in the series “clinical” (150 mg), 6.34 ± 3.4 µM in the series “clinical” (270 mg) and 6.81 ± 2.69 µM in the series “clinical” (540 mg). Moreover, the Kd (in general, the equilibrium constant for the complex coming apart) in series [2] was 13 µM.

Take `CN[C@@H]1C[C@H]2O[C@@](C)([C@@H]1OC)n1c3ccccc3c3c4c(c5c6ccccc6n2c5c31)C(=O)N[C@H]4O` [UCN-01]: at AAG, the “KD for AAG (corresponding to reported KA)” value is 1.25 nmol/L.
